# Results taken from the supplement of paper PMC11061612.
# Assays:
# Test in all cases: combination Emax (second highest fraction inhibited in the dose matrix, 72 h); higher = more inhibition; extreme values may be limits of the assay
# A704 (Kidney Carcinoma) = test system: A704 (Kidney Carcinoma)
# Method in brief: (§1)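 Bliss excess equals the observed combination effect minus the expected value EA + EB − EA·EB, where EA and EB are the effects of each agent alone. Combination Emax is the second-highest inhibition within the matrix. Inhibition was scaled from CellTiter-Glo 2.0 luminescence, with 0 set by vehicle wells and 1 by blank wells, after 72 hours of two-drug dosing of cells plated in 1536-well plates.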
# [1] = test system: ASH-3 (Thyroid Gland Carcinoma)
# Method in brief: as §1
# BT-20 (Breast Carcinoma) = test system: BT-20 (Breast Carcinoma)
# Method in brief: as §1
# [2] = test system: EBC-1 (Squamous Cell Lung Carcinoma)
# Method in brief: as §1
# EW-18 (Ewing's Sarcoma) = test system: EW-18 (Ewing's Sarcoma)
# Method in brief: as §1
# GOTO (Neuroblastoma) = test system: GOTO (Neuroblastoma)
# Method in brief: as §1
# [3] = test system: HC-1 (Other Blood Carcinomas)
# Method in brief: as §1
# [4] = test system: HuP-T3 (Pancreatic Carcinoma)
# Method in brief: as §1
# [5] = test system: JHH-7 (Hepatocellular Carcinoma)
# Method in brief: as §1
# [6] = test system: KINGS-1 (Low Grade Glioma)
# Method in brief: as §1
# [7] = test system: KLE (Endometrial Carcinoma)
# Method in brief: as §1
# [8] = test system: NCI-H2347 (Lung Adenocarcinoma)
# Method in brief: as §1
# [9] = test system: NCI-H2405 (Lung Adenocarcinoma)
# Method in brief: as §1
# [10] = test system: NCI-H322M (Lung Adenocarcinoma)
# Method in brief: as §1
# [11] = test system: OVISE (Ovarian Carcinoma)
# Method in brief: as §1
# [12] = test system: SCC-3 (B-Cell Non-Hodgkin's Lymphoma)
# Method in brief: as §1
# [13] = test system: SCC-9 (Oral Cavity Carcinoma)
# Method in brief: as §1
# [14] = test system: VMRC-LCD (Lung Adenocarcinoma)
# Method in brief: as §1
Structure (SMILES),combination Emax (A704 (Kidney Carcinoma)),combination Emax [1],combination Emax (BT-20 (Breast Carcinoma)),combination Emax [2],combination Emax (EW-18 (Ewing's Sarcoma)),combination Emax (GOTO (Neuroblastoma)),combination Emax [3],combination Emax [4],combination Emax [5],combination Emax [6],combination Emax [7],combination Emax [8],combination Emax [9],combination Emax [10],combination Emax [11],combination Emax [12],combination Emax [13],combination Emax [14]
"C=CCn1c(=O)c2cnc(Nc3ccc(N4CCN(C)CC4)cc3)nc2n1-c1cccc(C(C)(C)O)n1 [AZD1775] + O=C(c1cc(Cc2n[nH]c(=O)c3ccccc23)ccc1F)N1CCN(C(=O)C2CC2)CC1 [Olaparib] (first compound max 1 µM, partner max 10 µM)",0.462,0.262,0.518,0.272,0.522,0.771,0.983,0.274,0.293,0.381,0.456,0.35,0.192,0.666,0.619,0.968,0.265,0.34
"CN(C)CCCOc1ccc(-c2ccc3ncc4c(c3c2)n(C2CCOCC2)c(=O)n4C)cn1 [AZD0156] + C=CCn1c(=O)c2cnc(Nc3ccc(N4CCN(C)CC4)cc3)nc2n1-c1cccc(C(C)(C)O)n1 [AZD1775] (first compound max 1 µM, partner max 1 µM)",0.379,0.203,0.476,0.165,0.556,0.865,0.994,0.205,0.136,0.293,0.531,0.335,0.0974,0.77,0.7,0.941,0.168,0.357
"C[C@@H]1COCCN1c1cc(C2([S@](C)(=N)=O)CC2)nc(-c2ccnc3[nH]ccc23)n1 [AZD6738] + O=C(c1cc(Cc2n[nH]c(=O)c3ccccc23)ccc1F)N1CCN(C(=O)C2CC2)CC1 [Olaparib] (first compound max 10 µM, 7x7, partner max 10 µM)",0.438,0.652,0.415,0.487,0.666,0.808,0.76,0.705,0.339,0.376,0.482,0.385,0.28,0.697,0.663,0.994,0.314,0.562
"COc1cc2c(cc1OCCCCCOc1cc3c(cc1OC)C(=O)N1C=C(C)C[C@H]1C=N3)N=C[C@@H]1CC(C)=CN1C2=O [SG3199] + O=C(c1cc(Cc2n[nH]c(=O)c3ccccc23)ccc1F)N1CCN(C(=O)C2CC2)CC1 [Olaparib] (first compound max 0.001 µM, 7x7, partner max 10 µM)",0.202,0.0979,0.154,0.183,0.0839,0.522,0.498,0.112,0.108,0.147,0.184,0.181,0.081,0.256,0.0965,0.437,0.0776,0.0613
"Cc1cc2ncnn2cc1Nc1ncc2c(n1)n(C1CCOCC1)c(=O)n2C [AZD7648] + O=C(c1cc(Cc2n[nH]c(=O)c3ccccc23)ccc1F)N1CCN(C(=O)C2CC2)CC1 [Olaparib] (first compound max 10 µM, 7x7, partner max 10 µM)",0.226,0.321,0.313,0.202,0.369,0.525,0.521,0.12,0.159,0.189,0.419,0.224,0.093,0.325,0.19,0.435,0.0663,0.0108
"COc1cccc(OCCCN)c1-c1cc(Nc2cnc(C#N)cn2)n[nH]1 [Prexasertib] + Cc1cc2ncnn2cc1Nc1ncc2c(n1)n(C1CCOCC1)c(=O)n2C [AZD7648] (first compound max 1 µM, 7x7, partner max 10 µM)",0.504,0.648,0.646,0.588,0.742,0.908,1,0.716,0.458,0.607,0.471,0.39,0.412,0.979,0.716,1,0.49,0.749
"CCN(CCO)CCCOc1ccc2c(Nc3cc(CC(=O)Nc4cccc(F)c4)[nH]n3)ncnc2c1 [AZD2811] + C=CCn1c(=O)c2cnc(Nc3ccc(N4CCN(C)CC4)cc3)nc2n1-c1cccc(C(C)(C)O)n1 [AZD1775] (first compound max 1 µM, partner max 1 µM)",0.392,0.103,0.455,0.24,0.635,0.883,0.983,0.197,0.162,0.276,0.564,0.32,0.128,0.801,0.571,0.923,0.172,0.553
"COc1cccc(OCCCN)c1-c1cc(Nc2cnc(C#N)cn2)n[nH]1 [Prexasertib] + C[C@@H]1COCCN1C2=NC(=NC(=C2)C3(CC3)[S@](=N)(=O)C)C4=C5C=CNC5=NC=C4 [AZD6738] (first compound max 1 µM, 7x7, partner max 10 µM)",0.504,0.705,0.599,0.626,0.745,0.913,1,0.663,0.4,0.506,0.437,0.458,0.337,0.994,0.716,1,0.433,0.753
"CCN(CCO)CCCOc1ccc2c(Nc3cc(CC(=O)Nc4cccc(F)c4)[nH]n3)ncnc2c1 [AZD2811] + O=C(c1cc(Cc2n[nH]c(=O)c3ccccc23)ccc1F)N1CCN(C(=O)C2CC2)CC1 [Olaparib] (first compound max 1 µM, 7x7, partner max 10 µM)",0.188,0.249,0.286,0.216,0.667,0.654,0.681,0.163,0.218,0.241,0.16,0.186,0.234,0.182,0.272,0.488,0.19,0.545
"COc1cccc(OCCCN)c1-c1cc(Nc2cnc(C#N)cn2)n[nH]1 [Prexasertib] + C=CCn1c(=O)c2cnc(Nc3ccc(N4CCN(C)CC4)cc3)nc2n1-c1cccc(C(C)(C)O)n1 [AZD1775] (first compound max 1 µM, partner max 1 µM)",0.517,0.848,0.839,0.666,0.723,0.905,1,0.679,0.765,0.638,0.674,0.481,0.388,0.974,0.763,1,0.482,0.772
"CN(C)CCCOc1ccc(-c2ccc3ncc4c(c3c2)n(C2CCOCC2)c(=O)n4C)cn1 [AZD0156] + C[C@@H]1COCCN1C2=NC(=NC(=C2)C3(CC3)[S@](=N)(=O)C)C4=C5C=CNC5=NC=C4 [AZD6738] (first compound max 1 µM, 7x7, partner max 10 µM)",0.392,0.719,0.449,0.535,0.727,0.913,0.77,0.658,0.32,0.25,0.469,0.346,0.229,0.922,0.759,0.998,0.321,0.534
"CCN(CCO)CCCOc1ccc2c(Nc3cc(CC(=O)Nc4cccc(F)c4)[nH]n3)ncnc2c1 [AZD2811] + C[C@@H]1COCCN1C2=NC(=NC(=C2)C3(CC3)[S@](=N)(=O)C)C4=C5C=CNC5=NC=C4 [AZD6738] (first compound max 1 µM, 7x7, partner max 10 µM)",0.43,0.486,0.443,0.32,0.743,0.893,0.789,0.589,0.275,0.302,0.387,0.343,0.26,0.852,0.663,0.973,0.336,0.708
"Cc1cc2ncnn2cc1Nc1ncc2c(n1)n(C1CCOCC1)c(=O)n2C [AZD7648] + C=CCn1c(=O)c2cnc(Nc3ccc(N4CCN(C)CC4)cc3)nc2n1-c1cccc(C(C)(C)O)n1 [AZD1775] (first compound max 10 µM, partner max 1 µM)",0.478,0.324,0.559,0.209,0.553,0.783,0.992,0.283,0.392,0.318,0.508,0.359,0.192,0.923,0.635,0.815,0.293,0.425
"CCc1c2c(nc3ccc(O)cc13)-c1cc3c(c(=O)n1C2)COC(=O)[C@]3(O)CC [SN-38] + CN(C)CCCOc1ccc(-c2ccc3ncc4c(c3c2)n(C2CCOCC2)c(=O)n4C)cn1 [AZD0156] (first compound max 0.3 µM, 7x7, partner max 1 µM)",0.504,0.844,0.81,0.863,0.633,0.861,1,0.704,0.208,0.243,0.453,0.564,0.448,0.811,0.181,1,0.392,0.0996
